Data taken from BigSolDB 2.1.

Nc1ccc(C(=O)[O-])cc1.[K+]
Conditions | solubility (mole fraction)
in DMF, 283.15 K | 0.00143
in DMF, 293.15 K | 0.00146
in DMF, 303.15 K | 0.00153
in DMF, 313.15 K | 0.00154
in DMF, 323.15 K | 0.00159
in DMF, 333.15 K | 0.00161
in ethanol, 283.15 K | 0.00224
in ethanol, 293.15 K | 0.00232
in ethanol, 303.15 K | 0.00238
in ethanol, 313.15 K | 0.00244
in ethanol, 323.15 K | 0.0025
in ethanol, 333.15 K | 0.00252
in ethyl acetate, 283.15 K | 0.000198
in ethyl acetate, 293.15 K | 0.000205
in ethyl acetate, 303.15 K | 0.000211
in ethyl acetate, 313.15 K | 0.000216
in ethyl acetate, 323.15 K | 0.000219
in ethylene glycol, 283.15 K | 0.0973
in ethylene glycol, 293.15 K | 0.115
in ethylene glycol, 303.15 K | 0.127
in ethylene glycol, 313.15 K | 0.145
in ethylene glycol, 323.15 K | 0.156
in ethylene glycol, 333.15 K | 0.172
in formamide, 283.15 K | 0.0794
in formamide, 293.15 K | 0.0929
in formamide, 303.15 K | 0.104
in formamide, 313.15 K | 0.112
in formamide, 323.15 K | 0.119
in formamide, 333.15 K | 0.125
in isopropanol, 283.15 K | 0.000366
in isopropanol, 293.15 K | 0.000416
in isopropanol, 303.15 K | 0.000486
in isopropanol, 313.15 K | 0.000496
in isopropanol, 323.15 K | 0.00052
in isopropanol, 333.15 K | 0.000556
in n-propanol, 283.15 K | 0.000852
in n-propanol, 293.15 K | 0.000874
in n-propanol, 303.15 K | 0.000884
in n-propanol, 313.15 K | 0.000929
in n-propanol, 323.15 K | 0.000952
in n-propanol, 333.15 K | 0.000981
in water, 278.15 K | 0.092
in water, 288.15 K | 0.11
in water, 298.15 K | 0.125
in water, 308.15 K | 0.144
in water, 318.15 K | 0.161
in water, 328.15 K | 0.177
in water, 338.15 K | 0.194
